Assay results: ChEMBL document CHEMBL2177034, “Inhibition of hypoxia inducible factor-2 transcription: isolation of active modulators from marine sponges” (J Nat Prod, 2012)
One block for each compound: values may come before it. Activity calls are given as the source filed them. The rule behind the calls is not given here.

Legend:
786-0 [1] = test: Downregulation of HIF1alpha mRNA expression in human 786-0 cells at 79 uM after 48 hrs by RT-PCR analysis; assay type: functional, cell-based
786-0 [2] = test: Upregulation of carbonic anhydrase 9 mRNA expression in human 786-0 cells at 79 uM after 48 hrs by RT-PCR analysis; assay type: ADME, cell-based; details: 786-0, 48 h
[3] = biological target: T1, Endothelial PAS domain-containing protein 1 (Homo sapiens, UniProt Q99814); test: Inhibition of HIF2alpha in human 786-0 cells assessed as reduction in VEGFA mRNA expression at 79 uM after 48 hrs by RT-PCR analysis; assay type: cell-based
[4] = biological target: T1, Endothelial PAS domain-containing protein 1; test: Inhibition of HIF2alpha in human 786-0 cells assessed as reduction in CCND1 mRNA expression at 79 uM after 48 hrs by RT-PCR analysis; assay type: cell-based
[5] = biological target: T1, Endothelial PAS domain-containing protein 1; test: Inhibition of HIF2alpha in human 786-0 cells assessed as reduction in GLUT1 mRNA expression at 79 uM after 48 hrs by RT-PCR analysis; assay type: cell-based
[6] = biological target: T1, Endothelial PAS domain-containing protein 1; test: Inhibition of HIF2alpha in human 786-0 cells assessed as reduction in TGFalpha mRNA expression at 79 uM after 48 hrs by RT-PCR analysis; assay type: cell-based
[7] = Cytotoxicity against human SK-RC-28 cells expressing HIF1alpha after 2 days by XTT assay; assay type: functional, cell-based; details: 48 h
[8] = Cytotoxicity against human RCC4 cells expressing HIF2alpha and HIF1alpha after 2 days by XTT assay; assay type: functional, cell-based; details: RCC4, 48 h
786-0 [9] = test: Cytotoxicity against human 786-0 cells expressing HIF2alpha after 2 days by XTT assay; assay type: functional, cell-based; details: 786-0, 48 h
786-0 [10] = test: Induction of total protein expression in serum deprived human 786-0 cells at 79 uM after 48 hrs relative to control; assay type: cell-based; details: 786-0, 48 h
786-0 [11] = test: Induction of HIF-mediated VEGFA expression in serum deprived human 786-0 cells at 79 uM after 48 hrs relative to control; assay type: cell-based
[12] = biological target: T1, Endothelial PAS domain-containing protein 1; test: Inhibition of HIF2alpha in human 786-0 cells expressing truncated HIF1alpha assessed as reduction in luciferase activity after 24 hrs by reporter gene assay; assay type: cell-based
[13] = biological target: Hypoxia-inducible factor 1-alpha (Homo sapiens) (UniProt Q16665); test: Inhibition of HIF1alpha in human SK-RC-28 cells assessed as reduction in VEGFA expression at 79 uM after 48 hrs by RT-PCR analysis; assay type: cell-based
[14] = biological target: Hypoxia-inducible factor 1-alpha (Homo sapiens) (UniProt Q16665); test: Inhibition of HIF1alpha in human SK-RC-28 cells assessed as reduction in carbonic anhydrase expression at 79 uM after 48 hrs by RT-PCR analysis; assay type: cell-based
[15] = Downregulation of HIF2alpha mRNA expression in human SK-RC-28 cells at 79 uM after 48 hrs by RT-PCR analysis; assay type: functional, cell-based
[16] = Downregulation of HIF1alpha mRNA expression in human SK-RC-28 cells at 79 uM after 48 hrs by RT-PCR analysis; assay type: functional, cell-based
[17] = Downregulation of CCND1 mRNA expression in human SK-RC-28 cells at 79 uM after 48 hrs by RT-PCR analysis; assay type: functional, cell-based
[18] = Downregulation of GLUT1 mRNA expression in human SK-RC-28 cells at 79 uM after 48 hrs by RT-PCR analysis; assay type: functional, cell-based
[19] = Downregulation of TGFalpha mRNA expression in human SK-RC-28 cells at 79 uM after 48 hrs by RT-PCR analysis; assay type: functional, cell-based
[20] = Downregulation of HIF2alpha mRNA expression in human RCC4 cells at 79 uM after 48 hrs by RT-PCR analysis; assay type: functional, cell-based
[21] = Downregulation of HIF1alpha mRNA expression in human RCC4 cells at 79 uM after 48 hrs by RT-PCR analysis; assay type: functional, cell-based
[22] = biological target: T2, Hypoxia inducible factors; HIF-1-alpha, HIF-2-alpha (Homo sapiens) (UniProt Q16665+Q99814); test: Inhibition of HIF1alpha/2alpha in human RCC4 cells assessed as reduction in VEGFA mRNA expression at 79 uM after 48 hrs by RT-PCR analysis; assay type: cell-based
[23] = biological target: T1, Endothelial PAS domain-containing protein 1; test: Inhibition of HIF2alpha in human RCC4 cells coexpressing HIF1alpha assessed as reduction in CCND1 mRNA expression at 79 uM after 48 hrs by RT-PCR analysis; assay type: cell-based
[24] = biological target: T1, Endothelial PAS domain-containing protein 1; test: Inhibition of HIF2alpha in human RCC4 cells coexpressing HIF1alpha assessed as reduction in GLUT1 mRNA expression at 79 uM after 48 hrs by RT-PCR analysis; assay type: cell-based
[25] = biological target: T1, Endothelial PAS domain-containing protein 1; test: Inhibition of HIF2alpha in human RCC4 cells coexpressing HIF1alpha assessed as reduction in TGFalpha mRNA expression at 79 uM after 48 hrs by RT-PCR analysis; assay type: cell-based
[26] = biological target: Hypoxia-inducible factor 1-alpha (Homo sapiens) (UniProt Q16665); test: Inhibition of HIF1alpha in human RCC4 cells coexpressing HIF2alpha assessed as decrease in carbonic anhydrase 9 mRNA expression at 79 uM after 48 hrs by RT-PCR analysis; assay type: cell-based
786-0 [27] = test: Downregulation of HIF2alpha mRNA expression in human 786-0 cells at 79 uM after 48 hrs by RT-PCR analysis; assay type: functional, cell-based
786-0 [28] = test: Downregulation of HIF1alpha mRNA expression in human 786-0 cells at 20 uM after 48 hrs by RT-PCR analysis; assay type: functional, cell-based
[29] = biological target: T1, Endothelial PAS domain-containing protein 1; test: Inhibition of HIF2alpha in human 786-0 cells assessed as reduction in VEGFA mRNA expression at 20 uM after 48 hrs by RT-PCR analysis; assay type: cell-based
[30] = biological target: T1, Endothelial PAS domain-containing protein 1; test: Inhibition of HIF2alpha in human 786-0 cells assessed as reduction in CCND1 mRNA expression at 20 uM after 48 hrs by RT-PCR analysis; assay type: cell-based
[31] = biological target: T1, Endothelial PAS domain-containing protein 1; test: Inhibition of HIF2alpha in human 786-0 cells assessed as reduction in GLUT1 mRNA expression at 20 uM after 48 hrs by RT-PCR analysis; assay type: cell-based
[32] = biological target: T1, Endothelial PAS domain-containing protein 1; test: Inhibition of HIF2alpha in human 786-0 cells assessed as reduction in TGFalpha mRNA expression at 20 uM after 48 hrs by RT-PCR analysis; assay type: cell-based
786-0 [33] = test: Inhibition of total protein expression in serum deprived human 786-0 cells at 20 uM after 48 hrs relative to control; assay type: cell-based; details: 786-0, 48 h, 20 µM
786-0 [34] = test: Inhibition of HIF-mediated VEGFA protein expression in serum deprived human 786-0 cells at 20 uM after 48 hrs relative to control; assay type: cell-based
[35] = Downregulation of actin mRNA expression in human SK-RC-28 cells expressing HIF2alpha at 20 uM after 48 hrs by RT-PCr analysis; assay type: ADME, cell-based
[36] = Downregulation of actin mRNA expression in human RCC4 cells expressing HIF1alpha and HIF2alpha at 20 uM after 48 hrs by RT-PCr analysis; assay type: ADME, cell-based; details: rcc4, 48 h
786-0 [37] = test: Downregulation of actin mRNA expression in human […] at 20 uM after 48 hrs by RT-PCr analysis; assay type: ADME, cell-based; details: 786-0, 48 h
[38] = biological target: Hypoxia-inducible factor 1-alpha (Homo sapiens) (UniProt Q16665); test: Inhibition of HIF1alpha in human SK-RC-28 cells assessed as reduction in carbonic anhydrase 9 expression at 20 uM after 48 hrs by RT-PCR analysis; assay type: cell-based
[39] = (§1) Downregulation of HIF2alpha mRNA expression in human RCC4 cells at 20 uM after 48 hrs by RT-PCR analysis; assay type: functional, cell-based
[40] = (§2) Downregulation of HIF1alpha mRNA expression in human RCC4 cells at 20 uM after 48 hrs by RT-PCR analysis; assay type: functional, cell-based
[41] = biological target: Hypoxia-inducible factor 1-alpha (Homo sapiens) (UniProt Q16665); test: Inhibition of HIF1alpha in human RCC4 cells coexpressing HIF2alpha assessed as decrease in carbonic anhydrase 9 mRNA expression at 20 uM after 48 hrs by RT-PCR analysis; assay type: cell-based
786-0 [42] = test: Downregulation of carbonic anhydrase 9 expression in human 786-0 cells at 20 uM after 48 hrs by RT-PCR analysis; assay type: functional, cell-based
[43] = biological target: Hypoxia-inducible factor 1-alpha (Homo sapiens) (UniProt Q16665); test: Inhibition of HIF1alpha in human SK-RC-28 cells assessed as reduction in VEGFA expression at 20 uM after 48 hrs by RT-PCR analysis; assay type: cell-based
[44] = biological target: Hypoxia-inducible factor 1-alpha (Homo sapiens) (UniProt Q16665); test: Inhibition of HIF1alpha in human SK-RC-28 cells assessed as reduction in carbonic anhydrase expression at 20 uM after 48 hrs by RT-PCR analysis; assay type: cell-based
[45] = Downregulation of HIF2alpha mRNA expression in human SK-RC-28 cells at 20 uM after 48 hrs by RT-PCR analysis; assay type: functional, cell-based
[46] = Downregulation of HIF1alpha mRNA expression in human SK-RC-28 cells at 20 uM after 48 hrs by RT-PCR analysis; assay type: functional, cell-based
[47] = Downregulation of CCND1 mRNA expression in human SK-RC-28 cells at 20 uM after 48 hrs by RT-PCR analysis; assay type: functional, cell-based
[48] = Downregulation of GLUT1 mRNA expression in human SK-RC-28 cells at 20 uM after 48 hrs by RT-PCR analysis; assay type: functional, cell-based
[49] = Downregulation of TGFalpha mRNA expression in human SK-RC-28 cells at 20 uM after 48 hrs by RT-PCR analysis; assay type: functional, cell-based
[50] = as §1; assay type: functional, cell-based; remark: listed apart in the source
[51] = as §2; assay type: functional, cell-based; remark: listed apart in the source
[52] = biological target: T2, Hypoxia inducible factors; HIF-1-alpha, HIF-2-alpha (Homo sapiens); test: Inhibition of HIF1alpha/2alpha in human RCC4 cells assessed as reduction in VEGFA mRNA expression at 20 uM after 48 hrs by RT-PCR analysis; assay type: cell-based
[53] = biological target: T1, Endothelial PAS domain-containing protein 1; test: Inhibition of HIF2alpha in human RCC4 cells coexpressing HIF1alpha assessed as reduction in CCND1 mRNA expression at 20 uM after 48 hrs by RT-PCR analysis; assay type: cell-based
[54] = biological target: T1, Endothelial PAS domain-containing protein 1; test: Inhibition of HIF2alpha in human RCC4 cells coexpressing HIF1alpha assessed as reduction in GLUT1 mRNA expression at 20 uM after 48 hrs by RT-PCR analysis; assay type: cell-based
[55] = biological target: T1, Endothelial PAS domain-containing protein 1; test: Inhibition of HIF2alpha in human RCC4 cells coexpressing HIF1alpha assessed as reduction in TGFalpha mRNA expression at 20 uM after 48 hrs by RT-PCR analysis; assay type: cell-based
786-0 [56] = test: Downregulation of HIF2alpha mRNA expression in human 786-0 cells at 20 uM after 48 hrs by RT-PCR analysis; assay type: functional, cell-based

T1 sequence (Q99814 whole entry, the tested form may be a part): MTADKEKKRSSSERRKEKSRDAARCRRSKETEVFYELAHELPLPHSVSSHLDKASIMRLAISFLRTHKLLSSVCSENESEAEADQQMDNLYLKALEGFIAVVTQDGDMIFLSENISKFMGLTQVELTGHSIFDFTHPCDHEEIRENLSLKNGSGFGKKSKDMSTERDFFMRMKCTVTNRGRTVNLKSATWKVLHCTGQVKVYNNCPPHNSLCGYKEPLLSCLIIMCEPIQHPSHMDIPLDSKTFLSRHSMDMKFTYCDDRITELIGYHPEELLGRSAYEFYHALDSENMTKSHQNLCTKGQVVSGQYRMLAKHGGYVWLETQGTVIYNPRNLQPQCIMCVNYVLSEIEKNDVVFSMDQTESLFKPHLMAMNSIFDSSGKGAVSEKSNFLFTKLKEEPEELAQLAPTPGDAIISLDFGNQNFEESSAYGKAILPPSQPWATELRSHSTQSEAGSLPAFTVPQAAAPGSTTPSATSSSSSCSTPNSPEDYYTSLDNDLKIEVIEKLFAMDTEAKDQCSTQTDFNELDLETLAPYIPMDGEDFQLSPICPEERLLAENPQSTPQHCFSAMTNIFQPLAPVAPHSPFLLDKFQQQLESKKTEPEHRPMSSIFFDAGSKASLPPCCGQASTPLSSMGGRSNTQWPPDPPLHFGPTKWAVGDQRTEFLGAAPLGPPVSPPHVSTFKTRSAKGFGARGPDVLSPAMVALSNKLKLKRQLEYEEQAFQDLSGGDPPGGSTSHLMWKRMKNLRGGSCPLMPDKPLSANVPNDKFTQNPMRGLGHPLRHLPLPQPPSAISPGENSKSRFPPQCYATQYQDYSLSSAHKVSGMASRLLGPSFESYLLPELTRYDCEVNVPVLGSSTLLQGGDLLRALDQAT
Chain of Hypoxia-inducible factor 1-alpha (Homo sapiens) (Q16665 whole entry, looked up): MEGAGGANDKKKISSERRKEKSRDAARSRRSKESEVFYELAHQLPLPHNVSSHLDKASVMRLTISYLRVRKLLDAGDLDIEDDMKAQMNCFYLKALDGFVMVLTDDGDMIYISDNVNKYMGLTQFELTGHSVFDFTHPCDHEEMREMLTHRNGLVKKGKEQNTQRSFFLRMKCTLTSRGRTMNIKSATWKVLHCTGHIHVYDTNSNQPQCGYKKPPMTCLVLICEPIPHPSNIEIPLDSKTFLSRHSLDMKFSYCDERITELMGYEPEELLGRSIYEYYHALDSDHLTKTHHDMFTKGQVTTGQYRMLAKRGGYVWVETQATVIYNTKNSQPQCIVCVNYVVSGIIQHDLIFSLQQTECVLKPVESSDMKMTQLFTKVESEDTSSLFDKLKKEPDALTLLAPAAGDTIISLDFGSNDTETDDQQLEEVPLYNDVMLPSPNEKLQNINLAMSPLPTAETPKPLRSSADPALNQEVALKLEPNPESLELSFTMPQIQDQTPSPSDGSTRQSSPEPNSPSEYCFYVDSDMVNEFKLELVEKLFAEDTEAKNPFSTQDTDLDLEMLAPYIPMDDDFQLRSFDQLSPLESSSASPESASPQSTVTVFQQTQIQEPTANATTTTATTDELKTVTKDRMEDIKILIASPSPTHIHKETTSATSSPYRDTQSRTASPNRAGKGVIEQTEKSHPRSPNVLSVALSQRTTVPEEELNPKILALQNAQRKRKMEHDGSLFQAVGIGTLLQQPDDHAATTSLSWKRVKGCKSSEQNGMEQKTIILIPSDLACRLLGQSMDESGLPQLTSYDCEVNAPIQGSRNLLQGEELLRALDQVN

- inhibition [3]: Active
- inhibition [4]: Active
- inhibition [5]: Active
- inhibition [6]: Active
- EC50 [12]: 2.7 µM
- inhibition [13]: inactive
- inhibition [14]: inactive
- inhibition [22]: Active
- inhibition [23]: Active
- inhibition [24]: Active
- inhibition [25]: Active
- inhibition [26]: Active
SMILES: C/C=C(/C)C(=O)OCC1C2=C(C=CN1C=O)C(=O)C(C)=C(OC)C2=O (mixture of isomers)
- Activity (786-0 [1]): Active
- Activity (786-0 [2]): Toxic
- IC50 [7]: 38.7 µM
- IC50 [8]: 26.3 µM
- IC50 (786-0 [9]): 33.8 µM
- Activity (786-0 [10]): Toxic
- Activity (786-0 [11]): Active
- Activity [15]: inactive
- Activity [16]: inactive
- Activity [17]: inactive
- Activity [18]: inactive
- Activity [19]: inactive
- Activity [20]: Active
- Activity [21]: Active
- Activity (786-0 [27]): Active

SMILES: C#C[C@@H](O)/C=C/CCCCCCC#C[C@H](O)C#C/C=C/CC/C=C\CCCC/C=C\CCCCCCCCCCCCC/C=C/[C@@H](O)C#C [NEOPETROFORMYNE A]
- Activity (786-0 [28]): Active
- inhibition [29]: Active
- inhibition [30]: Active
- inhibition [31]: Active
- inhibition [32]: Active
- IC50 [7]: 35.1 µM
- IC50 [8]: 27.5 µM
- IC50 (786-0 [9]): 14.4 µM
- Activity (786-0 [33]): Toxic
- inhibition (786-0 [34]): Active
- EC50 [12]: 8.7 µM
- Activity [35]: Toxic
- Activity [36]: Toxic
- Activity (786-0 [37]): Toxic
- inhibition [38]: Active
- Activity [39]: Active
- Activity [40]: Active
- inhibition [41]: Active
- Activity (786-0 [42]): Active
- inhibition [43]: Active
- inhibition [44]: Active
- Activity [45]: Active
- Activity [46]: Active
- Activity [47]: Active
- Activity [48]: Active
- Activity [49]: Active
- Activity [50]: Active
- Activity [51]: Active
- inhibition [52]: Active
- inhibition [53]: Active
- inhibition [54]: Active
- inhibition [55]: Active
- Activity (786-0 [56]): Active
